Source: patent US7968556B2, “Heteroaryl compounds, compositions thereof, and methods of treatment therewith” (Signal Pharmaceuticals, LLC, priority 2006, dated 2011)

Assays:
mTOR = mTOR (Homo sapiens, UniProt P42345); assay: mTOR HTR-FRET Assay; format: biochemical
Procedure: The following is an example of an assay that can be used to determine the mTOR inhibitory activity of a test compound. Reagents are prepared as follows:
“Simple TOR buffer” (used to dilute high glycerol TOR fraction): 10 mM Tris pH 7.4, 10 mM NaCl, 0.1% Tween-20, 1 mM DTT (from 1M stock frozen at −20° C. just prior to use). For convenience a large quantity of “Simple TOR buffer” w/o DTT can be stored at 4° C. It can be brought to room temperature and DTT added just prior to dilution of TOR fraction.
5XKB/5XMn/5×ATP solution (used to dilute substrate GST-p70S6kin 81 a.a. just prior to use) (40 ml screen quantity shown):
Enzyme solution: Dilute TOR fraction 1:14 in “Simple TOR Buffer”. For current lot that is 640 μg/ml TOR fraction diluted 14× to yield 45.7 μg/ml TOR in buffer (i.e. 7.85 ml TOR pooled fraction+102.1 ml Simple TOR buffer=110 ml 14× diluted TOR fraction). Each Enzyme Lot must be QC'd prior to assay.
Substrate solution: This may be prepared just prior to assay if preferred. Dilute 5.3 mg/ml GST-p70S6kinase fragment stock to 3.5 μg/ml (97 nM) working stock in 5XKB/5XMn/5×ATP solution (i.e. 26.41 μL (5.3 mg/ml) GST-p70S6+40 ml 5XKB/5XMn/5×ATP=40 ml 3.5 μg/ml (97 nM)).
Assay Buffer (for dilution of Antibodies used in Antibody Detection Reagent):
Antibody Detection Reagent (this reagent should be made just prior to addition to Assay Plates):
Using PlateTrak program (Screen) or Matrix Pipettor (SAR), 19.5 μL of diluted TOR fraction is added to assay plate in all test, reference or positive control wells. 19.5 μL of “Simple TOR buffer” is added to all negative control wells. If treating multiple plates with the same compounds, can increase volume of enzyme to multiples of 19.5 μL in a tall 384 well polypropylene plate.
Using EP3, 0.5 μl of test, reference or control DMSO is added to each well with mixing. Plates are incubated for 30 minutes at room temperature.
Using PlateTrak program (Screen) or Matrix Pipettor (SAR) 5 μL of 5XKB/5XMn/5×ATP/5× substrate solution is added to each well of the assay plate to start the reaction. The solutions are mixed well and incubated for 2 hours at room temperature.
Using PlateTrak program (Screen) or Matrix Pipettor (SAR) 5 μL of 60 mM EDTA is added to stop the reaction. The solutions are mixed well and allowed to sit for 15-20 minutes before the next step.
Using PlateTrak program (Screen) or Matrix Pipettor (SAR) 10 μl of Antibody Detection Reagent is added. The solutions are mixes well and incubated for 5 hours to O/N to allow antibodies to form complexes with phosphorylated substrate.
Plates are read on AnalystHT using protocol Multi-Method protocol.

IKK-2 = molecular target: T1, IKK-2 (Homo sapiens, UniProt O14920, S177E/S181E); assay: IKK-2 screening assay (IKK2EE 33P Assay / IKK2EE NEMO HTRF Assay); format: biochemical
T1 sequence (O14920 1-756 S177E/S181E): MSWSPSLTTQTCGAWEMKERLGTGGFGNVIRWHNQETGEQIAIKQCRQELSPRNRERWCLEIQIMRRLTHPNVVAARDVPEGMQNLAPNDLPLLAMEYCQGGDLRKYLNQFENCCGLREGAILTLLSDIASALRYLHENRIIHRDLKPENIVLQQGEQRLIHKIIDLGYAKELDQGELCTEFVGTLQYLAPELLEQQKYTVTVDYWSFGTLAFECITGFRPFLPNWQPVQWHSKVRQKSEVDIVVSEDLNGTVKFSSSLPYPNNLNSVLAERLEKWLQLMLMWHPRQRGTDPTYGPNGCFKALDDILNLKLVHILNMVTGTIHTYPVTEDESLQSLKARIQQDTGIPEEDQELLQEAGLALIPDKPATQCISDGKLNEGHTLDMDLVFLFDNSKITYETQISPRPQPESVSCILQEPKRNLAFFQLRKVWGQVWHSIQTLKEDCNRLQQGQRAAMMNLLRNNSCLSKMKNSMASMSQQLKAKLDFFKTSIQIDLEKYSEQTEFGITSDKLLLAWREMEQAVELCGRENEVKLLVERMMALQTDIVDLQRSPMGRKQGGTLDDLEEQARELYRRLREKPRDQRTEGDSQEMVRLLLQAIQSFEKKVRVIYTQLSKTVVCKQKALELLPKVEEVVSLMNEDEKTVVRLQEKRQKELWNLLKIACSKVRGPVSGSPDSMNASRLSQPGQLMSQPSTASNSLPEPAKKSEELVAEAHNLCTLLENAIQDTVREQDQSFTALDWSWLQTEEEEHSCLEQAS
Procedure: The following is an example of an assay that can be used to determine the IKK2EE inhibitory activity of a test compound.
A reaction buffer (pH 7.8) is prepared containing HEPES (20 mM), MgCl2 (10 mM), EDTA (0.1 mM), DTT (1 mM) and Triton X-100 (0.004%). IKK2EE (0.75 μg/ml is used. GST-IKBα (50 μg/ml) is used as substrate. Adenosine 5′-triphosphate (1.5 μM with ^33P-ATP 5 nCi/μl) is used. Reactions are stopped with trichloroacetic acid (6.25%).
Appropriate amounts of test compounds or controls in 100% DMSO are added to the assay plate. A peptide-substrate solution (PSS) is prepared by adding peptide stock to an appropriate volume of buffer (peptide concentration in the PSS will be about 100 μg/ml). An enzyme-peptide solution (EPS) is prepared by adding enzyme stock to an appropriate volume of PSS (the enzyme concentration in the EPS will be about 1 μg/ml). An ATP solution is prepared by adding ATP stock to an appropriate volume of buffer (the ATP concentration will be 15 μM).
85 μl of EPS is added to the assay wells (or PSS to positive control wells) of 96 well polypropylene plates. The ATP solution is then completed by adding ^33P-ATP (to a final concentration of 50 μCi/ml).
The reaction is initiated by adding 10 μl ATP solution to each well. Plates are shaken from about 12 seconds and allowed to incubate at room temperature for 1 hours. 100 μl of trichloroacetic acid solution (12.5%) is added to stop the reaction and the plates are incubated at room temperature for at least 10 minutes. The assay plates are harvested onto a Millipore Multiscreen harvest Plate FC using an appropriate harvester and the harvest plates are washed with 1×PBS solution for about 10 seconds (continuous flow). Harvest plates are allowed to dry thoroughly and the bottoms of the plates are sealed. 20-50 μl of Microscint20 is added to each well, tops are sealed and plates are read using an appropriate scintillation counter.
A reaction buffer (pH 7.6) is prepared containing HEPES (20 mM), MgCl2 (10 mM), EDTA (0.05 mM), DTT (1 mM) and Triton X-100 (0.004%). IKK2EE-NEMO (0.7 μg/ml is used. GST-IKBα (0.5 μg/ml) is used as substrate. Adenosine 5′-triphosphate (1.5 μM) is used. Detection reagents used are mouse anti-P-IKBα (30 ng/ml), Eu anti-mouse (300 ng/ml) and Cy5 anti-GST (11.5 μg/ml). Reactions are stopped with EDTA (20 mM).
An enzyme solution (ES) is prepared by adding enzyme stock to an appropriate volume of buffer (enzyme concentration in the ES will be about 1.7 ng/ml). A detection mixture (DM) is prepared by adding ATP (final conc. 3.75 μM), mouse anti-P-IKBα (final conc. 75 ng/ml), GST-IKBα (final conc. 1.26 μg/ml), Eu anti-mouse in buffer (final conc. 750 ng/ml).
5 μl of compound (solvated in 10% DMSO) is added to assay wells (or 10% DMSO to control wells) of low binding reaction plates. […] ES is added to assay wells (or buffer to control wells) and the reaction is initiated by adding 10 μl DM to all wells. Plates are incubated at room temperature for 45 minutes. Stop mixture is prepared by adding EDTA (final conc. 70 mM) and Cy5 anti-GST (final conc. 40 μg/ml) to an appropriate volume of buffer. Stop mixture is added and plates are shaken for 20 seconds and incubated at room temperature for at least 3 hours (preferably in the dark). Plates are read on an Analyst HT using Multi-Method HTRF.

Structure (SMILES)	melting point [°C]	IC50 (mTOR) [µM]	IC50 (IKK-2) [µM]
NC(=O)c1nc(-c2cccnc2Cl)nc2c1[nH]c(=O)n2-c1ccccc1 [Compound 4, 2-(2-chloropyridin-3-yl)-8-oxo-9-phenyl-8,9-dihydro-7H-purine-6-carboxamide]	283 to 286	> 30	> 30
Cn1c(=O)[nH]c2c(C(N)=O)nc(-c3cccnc3)nc21 [Compound 7, 9-methyl-8-oxo-2-(pyridin-3-yl)-8,9-dihydro-7H-purine-6-carboxamide]	> 350	–	> 30
COc1ccc(-n2c(=O)[nH]c3c(C(N)=O)nc(-c4cccc(O)c4)nc32)cc1 [Compound 12, 2-(3-hydroxyphenyl)-9-(4-methoxyphenyl)-8-oxo-8,9-dihydro-7H-purine-6-carboxamide]	386 to 388	0.1 to 5	20.1 to 30
NC(=O)c1nc(-c2ccncc2)nc2c1NC(=O)CN2c1ccccc1 [Compound 37, 6-oxo-8-phenyl-2-(pyridin-4-yl)-5,6,7,8-tetrahydropteridine-4-carboxamide]	298 to 304	10.1 to 20	> 30
NC(=O)c1nc(-c2ccccn2)nc2c1[nH]c(=O)n2-c1ccccc1 [Compound 3, 8-oxo-9-phenyl-2-(pyridin-2-yl)-8,9-dihydro-7H-purine-6-carboxamide]	347 to 349	–	20.1 to 30
COc1ccccc1-n1c(=O)[nH]c2c(C(N)=O)nc(-c3ccccc3C(F)(F)F)nc21 [Compound 29, 9-(2-methoxyphenyl)-8-oxo-2-(2-(trifluoromethyl)phenyl)-8,9-dihydro-7H-purine-6-carboxamide]	237 to 240	> 30	–
NC(=O)c1nc(-c2cccc(O)c2)nc2c1[nH]c(=O)n2Cc1ccccc1 [Compound 23, 9-benzyl-2-(3-hydroxyphenyl)-8-oxo-8,9-dihydro-7H-purine-6-carboxamide]	362 to 366	> 30	–
NC(=O)c1nc(-c2cccc(O)c2)nc2c1[nH]c(=O)n2-c1cccc(F)c1 [Compound 28, 9-(3-fluorophenyl)-2-(3-hydroxyphenyl)-8-oxo-8,9-dihydro-7H-purine-6-carboxamide]	> 375	> 30	–
NC(=O)c1nc(-c2cccc(O)c2)nc2c1[nH]c(=O)n2C1CCCCC1 [Compound 33, 9-cyclohexyl-2-(3-hydroxyphenyl)-8-oxo-8,9-dihydro-7H-purine-6-carboxamide]	–	0.1 to 5	> 30
COc1ccccc1-n1c(=O)[nH]c2c(C(N)=O)nc(-c3cccc([N+](=O)[O-])c3)nc21 [Compound 26, 9-(2-methoxyphenyl)-2-(3-nitrophenyl)-8-oxo-8,9-dihydro-7H-purine-6-carboxamide]	295 to 296	> 30	–
COc1ccccc1-n1c(=O)[nH]c2c(C(N)=O)nc(C3CCCC3)nc21 [Compound 19, 2-cyclopentyl-9-(2-methoxyphenyl)-8-oxo-8,9-dihydro-7H-purine-6-carboxamide]	244 to 246	> 30	–
NC(=O)c1nc(-c2cccc(O)c2)nc2c1[nH]c(=O)n2-c1ccccc1F [Compound 15, 9-(2-fluorophenyl)-2-(3-hydroxyphenyl)-8-oxo-8,9-dihydro-7H-purine-6-carboxamide]	–	0.1 to 5	> 30
NC(=O)c1nc(-c2cccnc2)nc2c1[nH]c(=O)n2C1CCN(C(=O)OCc2ccccc2)CC1 [Compound 32, benzyl 4-(6-carbamoyl-8-oxo-2-(pyridin-3-yl)-7H-purin-9(8H)-yl)piperidine-1-carboxylate]	–	0.1 to 5	10.1 to 20
NC(=O)c1nc(-c2cccc(O)c2)nc2c1[nH]c(=O)n2-c1c(F)cccc1F [Compound 16, 9-(2,6-difluorophenyl)-2-(3-hydroxyphenyl)-8-oxo-8,9-dihydro-7H-purine-6-carboxamide]	355 to 358	0.1 to 5	–
NC(=O)c1nc(-c2cccc(O)c2)nc2c1[nH]c(=O)n2-c1ccc(Cl)cc1Cl [Compound 25, 9-(2,4-dichlorophenyl)-2-(3-hydroxyphenyl)-8-oxo-8,9-dihydro-7H-purine-6-carboxamide]	375 to 377	5.1 to 10	–
